In data set [1] the test system is CD34+ cells (hematopoietic stem cells). The experiment in a line: colony forming unit (CFU) assay after cryopreservation of umbilical cord blood. The data set is classed as cell-based, human. To be noted: for BFU-E / CFU-G / CFU-GEMM / CFU-GM / CFU-M / Total Number of Colonies: 10% DMSO, post-thaw, 14 days in Methocult; for combined results of the CFU assays vs control: UCB units 26, 27, 28 combined, FIG. 41. The protocol:
(§1) Aliquots of LC (50,000 CD34^+ cells) are added to 2.0 mL cryovials. For each experiment, four cryovials are prepared (two for post-thaw viability analysis using flow cytometry and two for functionality analysis using the colony forming unit assay). Cryovials are kept on ice until placement in −80° C. freezer. Cryovials are centrifuged at 400 g and 10° C. for 5 minutes to pellet cells. After centrifugation, the time taken until placement in −80° C. freezer should not exceed 10 minutes. Supernatant is removed by aspiration or by decanting, but preferably by aspiration. Plasma (volume depends on desired cryosolution concentration) is added and cells are suspended by pipetting. Pre-made cryosolutions (see Cryosolutions) are added (volume depends on desired cryosolution concentration) and mixed by pipetting. Cryovials are placed in a Mr. Frosty® rate controlled freezing container which is then placed in a −80° C. freezer for 24 hours. By placing the cryovials in the freezing container, their contents undergo a cooling rate of about −1° C. per minute. After 24 hours, the cryovials are transferred to a liquid nitrogen dewar for storage until thawed for analysis.
(§2) Cryosolutions are prepared in distilled autoclaved water supplemented with 0.9% saline and 5% dextran for cryopreservation experiments and diluted with different volumes of plasma in cryovials depending on desired concentration of ice recrystallization inhibitor. N-(4-chlorophenyl)-D-gluconamide (4a) and N-(2-fluorophenyl)-D-gluconamide (2a) are prepared at 25 mM and N-(4-methoxyphenyl)-D-gluconamide (3a) and N-(2,6-difluorobenzyl)-D-gluconamide (1b) are prepared at 55 mM. 100, 50, 33 or 20 μL of 25 mM N-(4-chlorophenyl)-D-gluconamide (4a) or N-(2-fluorophenyl)-D-gluconamide (2a) are added to cryovials containing 50,000 CD34^+ cells suspended in 0, 50, 67, or 80 μL of plasma, respectively, for a final IRI concentration of 25, 12.5, 8 or 5 mM, respectively. 100, 50, 33 or 20 μL of 55 mM N-(4-methoxyphenyl)-D-gluconamide (3a) or N-(2,6-difluorobenzyl)-D-gluconamide (1b) are added to cryovials containing 50,000 CD34^+ cells suspended in 0, 50, 67, or 80 μL of plasma, respectively, for a final IRI concentration of […], 18 or 11 mM, respectively.
Cryovials are thawed in a 37° C. water bath and diluted with 900 μL of IMDM (10% FBS, 1% penicillin/streptomycin). Cryovials are placed on ice until washed. Samples are mixed by pipetting and 80 μL is transferred to a 15 mL Falcon tube. 5 mL of Iscove's Modified Dulbecco's Medium (IMDM) supplemented with 10% fetal bovine serum (FBS) is added and this mixture is centrifuged at 1100 rpm for six minutes to yield a cell pellet and a supernatant. The supernatant is removed by aspiration and the cell pellet is resuspended in 1 mL IMDM (2% FBS) to form a suspension. The suspension is mixed by pipetting. 150 μL of this cell suspension is added to 3 mL Methocult™ media and plating is performed in accordance with manufacturer's instruction. The suspension with Methocult™ media is mixed adequately by vortexing for 20 seconds. The contents are allowed to settle and bubbles are allowed to subside before plating (approximately 5-10 minutes). Using a 3 mL syringe and 16 gauge blunt needles, 2.5 mL of the cell suspension in Methocult™ is taken from the bottom. 1 mL of this 2.5 mL is added to two 5 mL cell culture dishes. The dishes are swirled to ensure cells in Methocult™ medium coat the entire bottom of the dish. A third 5 mL dish is prepared to contain distilled autoclaved water without a lid. These three 5 mL dishes are placed in a 100 mL plate; two 5 mL dishes contain 1 mL of cell suspension in Methocult™ medium with the lid on and one containing distilled autoclaved water with the lid off. The lid is placed on the 100 mL plate and stored in a 37° C. incubator (5% CO2) for two weeks.

The test system is the same in data set [2]. Description: post-thaw viability of CD34+ cells of cryopreserved umbilical cord blood, flow cytometry. The data set is classed as cell-based, human. The note with it: for Post-Thaw Viab.: UCB Unit 27; for CD34+ cell viability compared with control: vs control that contained 10% DMSO only. On the procedure: Whole umbilical cord blood (UCB) should be stored at room temperature (15-25° C.) and processed within 48 hrs of collection. UCB is removed from collection bag and spilt in equal parts into 50 mL Falcon tubes. No more than 25 mL of UCB should be added per Falcon tube. UCB is diluted with 6% hetastarch (Hespan) to obtain a final concentration of 1% hetastarch and incubated for 10 minutes at room temperature. The tubes are then centrifuged at 50 g at 10° C. for 15-20 minutes, depending on volume. The centrifuge should not brake to stop. For total volumes of 30 mL, 15-17 minute centrifugation is utilized and for total volumes of 35 mL, 17-20 minute centrifugation is utilized. The supernatant and buffy coat (plasma and leukocytes) are removed carefully (not collecting RBCs) from the tubes and collected into new 50 mL Falcon tubes. These tubes are centrifuged at 400 g and 10° C. for 10 mins to pellet cells. The centrifuge brake can now be utilized. Plasma is removed and kept in new 50 mL Falcon tubes on ice. The cell pellets resuspended and combined in plasma to a total volume of 20 mL to generate leukocyte concentrate (LC). The LC is kept on ice for the duration of its use. Total mononuclear (CD45^+) and CD34^+ (hematopoetic stem cells) cell concentrations and viability are determined by flow cytometry (see Flow Cytometry procedure below). Aliquots of LC (50,000 CD34^+ cells) are utilized for cryopreservation experiments (see Cryopreservation Experiments procedure below).
as §1, §2
Total mononuclear cell (CD45+) and progenitor cell (CD34+) viability is assessed by flow cytometry using International Society of Hematotherapy and Graft Engineering (ISHAGE) guidelines (J. Hematother. Stem Cell Res. 1996, 5, 213-226). […]
In general terms: In flow cytometry, cells or beads pass a laser one at a time.

Several values for one entry are separate records, joined by “and”; a condition that tells them apart may be missing. Equal values may be shown once.

In data set [1] (11 mM IRI), `O=C(NCc1c(F)cccc1F)[C@H](O)[C@@H](O)[C@H](O)[C@H](O)CO` [(1b), N-(2,6-difluorobenzyl)-D-gluconamide] came in with a BFU-E of 25.3, a CFU-G of 4.3, a CFU-GEMM of 2.4 and a CFU-GM of 9.8. Moreover, in data set [1] (11 mM IRI), the CFU-M is reported as 1.5 and the “Total Number of Colonies” value stood at 41.9. In data set [1] (11 mM IRI, UCB Unit 27), the “Tot. No. Colonies” value was 31 and 30. In data set [1] (18 mM IRI), this molecule came in with a BFU-E of 24.0, a CFU-G of 9.5, a CFU-GEMM of 7.5 and a CFU-GM of 11.0. Besides, in data set [1] (18 mM IRI), the CFU-M is on record as 4.5 and the “Total Number of Colonies” value is given as 56.5. In addition, the “fold increase in functionality relative to the control” value in data set [1] (18 mM vs DMSO only) worked out at 1.8 fold. Further, in data set [1] (27.5 mM IRI), the CFU-G stood at 3.0, the CFU-GEMM is listed as 3.5, the CFU-GM is listed as 11.0 and the “Total Number of Colonies” value was determined as 48.0. In addition, in data set [1] (55 mM IRI), the BFU-E turned out to be 29.5, the CFU-G amounted to 8.5, the CFU-GEMM is given as 1.5 and the CFU-GM turned out to be 10.5. Also, in data set [1] (55 mM IRI), the CFU-M came to 0.5 and the “Total Number of Colonies” value came out at 50.5. The “combined results of the CFU assays vs control” value (shortened to “combined results … vs control”) in data set [1] is listed as “performed particularly well”. In addition, the “Post-Thaw Viab.” value in data set [2] (11 mM IRI) is recorded as 57%. In addition, the “CD34+ cell viability compared with control” value in data set [2] is “substantially similar to the control”.
On to `O=C(Nc1ccccc1F)[C@H](O)[C@@H](O)[C@H](O)[C@H](O)CO` [(2a), N-(2-fluorophenyl)-D-gluconamide], for which the “Tot. No. Colonies” value was 48 and 66 and 42 in data set [1] (5 mM IRI, UCB Unit 26); 38 and 34 in data set [1] (5 mM IRI, UCB Unit 27). Besides, the “combined results … vs control” value in data set [1] was “performed particularly well”. In data set [2] (5 mM IRI), the “Post-Thaw Viab.” value worked out at 88%. Also, the “CD34+ cell viability compared with control” value in data set [2] is recorded as “substantially similar to the control”.
As for `COc1ccc(NC(=O)[C@H](O)[C@@H](O)[C@H](O)[C@H](O)CO)cc1` [(3a), N-(4-methoxyphenyl)-D-gluconamide], in data set [1] (11 mM IRI), the BFU-E came to 20.5, the CFU-G stood at 5.5, the CFU-GEMM came out at 5.9 and the CFU-GM is on record as 7.4. Besides, in data set [1] (11 mM IRI), the CFU-M was 0.9 and the “Total Number of Colonies” value amounted to 40.4. For the same molecule, the “Tot. No. Colonies” value in data set [1] (11 mM IRI, UCB Unit 27) is 33 and 37. In addition, in data set [1] (18 mM IRI), the BFU-E came out at 18.0, the CFU-G is recorded as 8.8, the CFU-GEMM was 2.8 and the CFU-GM is listed as 11.3. In data set [1] (18 mM IRI), the CFU-M came out at 0.3 and the “Total Number of Colonies” value is 36.0. Further, in data set [1] (27.5 mM IRI), the CFU-G came out at 6.5, the CFU-GEMM worked out at 15.5, the CFU-GM was found to be 14.0 and the “Total Number of Colonies” value is reported as 74.5. Also, the “fold increase in functionality relative to the control” value in data set [1] (27.5 mM vs DMSO only) came out at 2.4 fold. Moreover, in data set [1] (55 mM IRI), the BFU-E was 24.5, the CFU-G stood at 9.5, the CFU-GEMM is reported as 6.5 and the CFU-GM amounted to 15.0. Besides, in data set [1] (55 mM IRI), the CFU-M is recorded as 1.0 and the “Total Number of Colonies” value stood at 56.5. The “combined results … vs control” value in data set [1] is “performed particularly well”. The “Post-Thaw Viab.” value in data set [2] (11 mM IRI) was determined as 78%. In addition, in data set [2], the “CD34+ cell viability compared with control” value is “substantially similar to the control”.
`O=C(Nc1ccc(Cl)cc1)[C@H](O)[C@@H](O)[C@H](O)[C@H](O)CO` [(4a), N-(4-chlorophenyl)-D-gluconamide]: in data set [1] (5 mM IRI), the BFU-E stood at 22.2, the CFU-G is 4.2, the CFU-GEMM is 6.8 and the CFU-GM worked out at 11.5. In addition, in data set [1] (5 mM IRI), the CFU-M was 1.3 and the “Total Number of Colonies” value came out at 46.0. In data set [1] (5 mM IRI, UCB Unit 27), the “Tot. No. Colonies” value was 47 and 38. In data set [1] (8 mM IRI), this molecule gave a BFU-E of 17.0, a CFU-G of 8.0, a CFU-GEMM of 4.0 and a CFU-GM of 10.5. Besides, in data set [1] (8 mM IRI), the CFU-M is given as 0.5 and the “Total Number of Colonies” value amounted to 40.0. In addition, in data set [1] (12.5 mM IRI), the BFU-E was determined as 44.0, the CFU-G came to 1.5, the CFU-GEMM is 0.0 and the CFU-GM amounted to 8.5. Moreover, in data set [1] (12.5 mM IRI), the CFU-M is listed as 3.0 and the “Total Number of Colonies” value stood at 61.0. In data set [1] (25 mM IRI), this molecule displayed a BFU-E of 37.0, a CFU-G of 11.5, a CFU-GEMM of 2.0 and a CFU-GM of 10.5. Also, in data set [1] (25 mM IRI), the CFU-M came out at 2.0 and the “Total Number of Colonies” value is recorded as 63.0. Further, in data set [1] (25 mM vs DMSO only), the “fold increase in functionality relative to the control” value is 2.0 fold. In data set [1], the “combined results … vs control” value is “performed particularly well”. Further, in data set [2] (5 mM IRI), the “Post-Thaw Viab.” value is 88%. Also, the “CD34+ cell viability compared with control” value in data set [2] is recorded as “substantially similar to the control”.

These data come from patent publication US10004222B2, “Small molecule ice recrystallization inhibitors and methods of use thereof” (THE UNIVERSITY OF OTTAWA, priority 2012, dated 2018).
